Values of other authors as cited in paper PMC5133935, “Hydrostatin-TL1, an Anti-Inflammatory Active Peptide from the Venom Gland of Hydrophis cyanocinctus in the South China Sea” (International Journal of Molecular Sciences, 2016).

System: TNF-α
Conditions: cited from earlier work
Excerpt: Snake-derived products have been used as traditional Chinese medicines for centuries in China; however, their mechanisms of action and active constituents are still unknown. Snake venom, which is a mixture of proteins and peptides, has various biological properties including antitumor, anti-inflammatory, anti-stroke, and analgesic activities. […] Venom from s ...

For Cathelicidin-BF, the “antimicrobial and anti-inflammatory properties” value is given as “both antimicrobial and anti-inflammatory properties” and the “expression and secretion of TNF-α” value is given as “decreases the expression and secretion of TNF-α”.
